pIC50: −log10 of the molar value.

The test system of one experiment is STING (IFN-β in hPBMC). Nature of the experiment: hPBMC cytokine functional assay (IFN-β decrease after Baculovirus stimulation). The class given is cell-based. The conditions noted are these: Homo sapiens, Baculovirus MOI 40, 24 hours, read-out: hPBMC_IC50. The method, then: The inhibition of STING by compounds could be measured by the decrease of IFN-β in hPBMC, which is stimulated by a double stranded DNA virus Baculoviurs (Purchased from Genescript, pCMV-Dest Vector virus generation P2 BV stock virus, Sf-900 II medium with 5% FBS, Lot C9835DK230-2/P4DL001). Frozen hPBMC cells (purchased from Stemcell Technologies, cat number is 70025, Lot 191070803C) were thawed at 37° C. water bath, then cells were re-suspended in 50 ml tube using 20 ml Cell culture medium, and then centrifuged for 5 min at 2000 rpm before the supernatant was removed carefully. The cells were re-suspended in culture medium (RPMI-1640 with 1.5 g/L NaHCO3, 4.5 g/L glucose, 10 mM HEPES and 1 mM Na-pyruvate, 10% HI-FBS); 65 μL of the cell suspension was dispensed into 384 well plate (70K cells/well) by Multidrop Combi with at least 3 hours incubation at 37° C., 5% CO2 cell incubator.
Then 4 μL of compound solution per well (final 0.5% DMSO) was transferred by Agilent Bravo followed by infection with 11 μL of Baculovirus at a final MOI of 40. The level of IFN-β secreted in the supernatant of hPBMC was determined after 24 hours of incubation at 37° C. cell incubator by human IFN-β HTRF assay (Cisbio, cat: 62HIFNBPEH) following the manufacture's instruction. CellTiter-Glo kit (Promega, cat: G7573) was applied for the cell viability evaluation using Envision.

The target in experiment [1] is human stimulator of interferon genes (STING) (139-379) (Homo sapiens (Human), UniProt Q86WV6). Put plainly: Microliter plate-based TR-FRET competition-binding assay for binders of STING. The conditions noted are these: Alexa488 probe, read-out: FRET_IC50. The method, then: This is the competition-binding assay to test the compounds' potency to the C-terminal Domain (CTD) and ligand-binding domain of human stimulator of interferon genes (STING). STING (139-379, Q86WV6, http://www.uniprot.org/uniprot) recombinant protein (in 20 mM Tris, 150 mM NaCl, pH 8.0, and expression in Escherichia coli (E. coli) BL21 (DE3)) with a C-terminal flag-tag was employed for the assay. When Alexa-488 labeled active site probe (refer to patent WO2017/175156 A1) bounds to STING (139-379), it accepts the 485 nm emission from Tb-M2-Flag-STING and results in an increase in fluorescence at 520 nm. Compounds that compete for the probe-binding site will reduce 520 nm signal. The assay was run in proxiplate-384 plus (PerkinElmer, cat: 60150300) containing of 2.5 nM STING, 2.5 nM M2-Tb (Cisbio, 61FG2TLA, Lot: 17 A) and 250 nM Alexa488 probe. Plates were centrifuged for 1 min at 1000 rpm, incubated for 30 min at room temperature, and then measured the dual fluorescence emission at 520 nm/485 nM following 320 nm laser excitation on an Envision plate reader (Perkin-Elmer). The compounds' effect on the STING binding is detected by measuring ratiometric fluorescence from time-resolved FRET. The percentage of inhibition of at each compound concentration is calculated on the basis of their changes of TR-FRET efficiency relative to the change of TR-FRET caused by positive control 2′3′cGAMP (Sigma, cat: SML1229).
human stimulator of interferon genes (STING) (139-379), sequence (Q86WV6 139-379): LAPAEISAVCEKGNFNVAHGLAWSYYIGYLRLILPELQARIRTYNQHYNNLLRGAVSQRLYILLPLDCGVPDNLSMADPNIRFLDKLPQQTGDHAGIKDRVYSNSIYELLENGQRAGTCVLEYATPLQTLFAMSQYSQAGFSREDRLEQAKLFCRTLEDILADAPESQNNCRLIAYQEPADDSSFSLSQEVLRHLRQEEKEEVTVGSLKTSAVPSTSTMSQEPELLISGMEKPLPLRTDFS

As for `Cn1nc2cc(F)cc3c2c1CCCN(CCN1CCOCC1)C(=O)[C@@H]1C[C@@H](CN1c1ncnc2c1cnn2-c1ccc(F)cc1F)Oc1cccc-3c1` [Example 25, (8S,11S)-10-[1-(2,4-difluorophenyl)pyrazolo[3,4-d]pyrimidin-4-yl]-22-fluoro-18-methyl-13-(2-morpholinoethyl)-7-oxa-10,13,18,19-tetrazapentacyclo[15.6.1.1^2,6.1^8,11.0^20,24]hexacosa-1(23),2(26),3,5,17(24),19,21-heptaen-12-one], the pIC50 in the experiment with STING (IFN-β in hPBMC) was 6.26; in experiment [1], 7.74.

As for `COc1cc2nc(c1)-c1cccc3nn(C)c(c13)CCCN(C)C(=O)[C@@H]1C[C@@H](CN1c1ncnc3c1cnn3-c1ccc(F)cc1F)N2` [Example 13, (8S,11S)-10-[1-(2,4-difluorophenyl)pyrazolo[3,4-d]pyrimidin-4-yl]-4-methoxy-13,18-dimethyl-7,10,13,18,19,26-hexazapentacyclo[15.6.1.1^2,6.1^8,11.0^20,24]hexacosa-1(23),2,4,6(26),17(24),19,21-heptaen-12-one], the pIC50 in the experiment on STING (IFN-β in hPBMC) was 6.65; in experiment [1], 8.33.

Consider `CC(=O)N1CCN(CCCN2CCCc3c4c(cccc4nn3C)-c3cccc(c3)O[C@H]3C[C@@H](C2=O)N(c2ncnc4c2cnn4-c2ccc(F)cc2F)C3)CC1` [Example 33, (8S,11S)-13-[3-(4-acetylpiperazin-1-yl)propyl]-10-[1-(2,4-difluorophenyl)pyrazolo[3,4-d]pyrimidin-4-yl]-18-methyl-7-oxa-10,13,18,19-tetrazapentacyclo[15.6.1.1^2,6.1^8,11.0^20,24]hexacosa-1(23),2(26),3,5,17(24),19,21-heptaen-12-one], for which the figures for the pIC50 (in the experiment with STING (IFN-β in hPBMC); in experiment [1]) were 6.09 and 8.77, respectively.

In the case of `Cn1nc2cccc3c2c1CCCN(CCOCc1ccncc1)C(=O)[C@@H]1C[C@@H](CN1c1ncnc2c1cnn2-c1ccc(F)cc1F)Oc1cccc-3c1` [Example 28, (8S,11S)-10-[1-(2,4-difluorophenyl)pyrazolo[3,4-d]pyrimidin-4-yl]-18-methyl-13-[2-(4-pyridylmethoxy)ethyl]-7-oxa-10,13,18,19-tetrazapentacyclo[15.6.1.1^2,6.1^8,11.0^20,24]hexacosa-1(23),2(26),3,5,17(24),19,21-heptaen-12-one], the pIC50 in the experiment on STING (IFN-β in hPBMC) was 6.74; in experiment [1], 9.70.

On to `COCCOCCCN1CCCc2c3c(cccc3nn2C)-c2cccc(c2)O[C@H]2C[C@@H](C1=O)N(c1ncnc3c1cnn3-c1ccc(F)cc1F)C2` [Example 39, (8S,11S)-10-[1-(2,4-difluorophenyl)pyrazolo[3,4-d]pyrimidin-4-yl]-13-[3-(2-methoxyethoxy)propyl]-18-methyl-7-oxa-10,13,18,19-tetrazapentacyclo[15.6.1.1^2,6.1^8,11.0^20,24]hexacosa-1(23),2(26),3,5,17(24),19,21-heptaen-12-one], for which, in experiment [1], the pIC50 was 8.26.

Consider `Cn1nc2cccc3c2c1CCCN(CCCc1ccccc1)C(=O)[C@@H]1C[C@@H](CN1c1ncnc2c1cnn2-c1ccc(F)cc1F)Oc1cccc-3c1` [Example 29, (8S,11S)-10-[1-(2,4-difluorophenyl)pyrazolo[3,4-d]pyrimidin-4-yl]-18-methyl-13-(3-phenylpropyl)-7-oxa-10,13,18,19-tetrazapentacyclo[15.6.1.1^2,6.1^8,11.0^20,24]hexacosa-1(23),2(26),3,5,17(24),19,21-heptaen-12-one], for which the pIC50 is 7.51 in the experiment with STING (IFN-β in hPBMC) and 8.92 in experiment [1].

For the compound `COc1cc2nc(c1)-c1cccc3nn(C)c(c13)CCCN(C)C(=O)[C@@H]1C[C@@H](CN1c1ncnc3c1cnn3-c1ccc(F)cc1OC)N2` [Example 14, (8S,11S)-10-[1-(4-fluoro-2-methoxy-phenyl)pyrazolo[3,4-d]pyrimidin-4-yl]-4-methoxy-13,18-dimethyl-7,10,13,18,19,26-hexazapentacyclo[15.6.1.1^2,6.1^8,11.0^20,24]hexacosa-1(23),2,4,6(26),17(24),19,21-heptaen-12-one], the pIC50 with STING (IFN-β in hPBMC) is 6.59; in experiment [1], 8.32.

Consider `COCCN1CCCc2c3c(cccc3nn2C)-c2cccc(c2)O[C@H]2C[C@@H](C1=O)N(c1ncnc3c1cnn3-c1ccc(F)cc1F)C2` [Example 21, (8S,11S)-10-[1-(2,4-difluorophenyl)pyrazolo[3,4-d]pyrimidin-4-yl]-13-(2-methoxyethyl)-18-methyl-7-oxa-10,13,18,19-tetrazapentacyclo[15.6.1.1^2,6.1^8,11.0^20,24]hexacosa-1(23),2(26),3,5,17(24),19,21-heptaen-12-one], for which the pIC50 in the experiment on STING (IFN-β in hPBMC) is 6.42; in experiment [1], 8.70.

As to `Cn1nc2cccc3c2c1CCCN(CCCc1ccccc1)C(=O)[C@@H]1C[C@@H](CN1c1ncnc2c1cnn2-c1ccc(F)cc1F)Oc1cccc-3n1` [Example 41, (8S,11S)-10-[1-(2,4-difluorophenyl)pyrazolo[3,4-d]pyrimidin-4-yl]-18-methyl-13-(3-phenylpropyl)-7-oxa-10,13,18,19,26-pentazapentacyclo[15.6.1.1^2,6.1^8,11.0^20,24]hexacosa-1(23),2(26),3,5,17(24),19,21-heptaen-12-one], the pIC50 in the experiment with STING (IFN-β in hPBMC) is 7.32; in experiment [1], 8.68.

In the case of `Cn1nc2cccc3c2c1CCCN(CCCN1CCN(S(C)(=O)=O)CC1)C(=O)[C@@H]1C[C@@H](CN1c1ncnc2c1cnn2-c1ccc(F)cc1F)Oc1cccc-3c1` [Example 35, (8S,11S)-10-[1-(2,4-difluorophenyl)pyrazolo[3,4-d]pyrimidin-4-yl]-18-methyl-13-[3-(4-methylsulfonylpiperazin-1-yl)propyl]-7-oxa-10,13,18,19-tetrazapentacyclo[15.6.1.1^2,6.1^8,11.0^20,24]hexacosa-1(23),2(26),3,5,17(24),19,21-heptaen-12-one], the pIC50 in the experiment on STING (IFN-β in hPBMC) was 6.74; in experiment [1], 9.70.

Regarding `Cn1nc2cccc3c2c1CCCN(CCCN1CCOCC1)C(=O)[C@@H]1C[C@@H](CN1c1ncnc2c1cnn2-c1ccc(F)cc1F)Oc1cccc-3c1` [Example 30, (8S,11S)-10-[1-(2,4-difluorophenyl)pyrazolo[3,4-d]pyrimidin-4-yl]-18-methyl-13-(3-morpholinopropyl)-7-oxa-10,13,18,19-tetrazapentacyclo[15.6.1.1^2,6.1^8,11.0^20,24]hexacosa-1(23),2(26),3,5,17(24),19,21-heptaen-12-one], the pIC50 is 6.76 in the experiment with STING (IFN-β in hPBMC) and 8.70 in experiment [1].

For the compound `Cn1nc2cccc3c2c1CCCN(Cc1cscn1)C(=O)[C@@H]1C[C@@H](CN1c1ncnc2c1cnn2-c1ccc(F)cc1F)Oc1cccc-3c1` [Example 17, (8S,11S)-10-[1-(2,4-difluorophenyl)pyrazolo[3,4-d]pyrimidin-4-yl]-18-methyl-13-(thiazol-4-ylmethyl)-7-oxa-10,13,18,19-tetrazapentacyclo[15.6.1.1^2,6.1^8,11.0^20,24]hexacosa-1(23),2(26),3,5,17(24),19,21-heptaen-12-one], the pIC50 in experiment [1] is 8.66.

Consider `Cn1nc2cccc3c2c1CCCN(CCCn1cncn1)C(=O)[C@@H]1C[C@@H](CN1c1ncnc2c1cnn2-c1ccc(F)cc1F)Oc1cccc-3c1` [Example 37, (8S,11S)-10-[1-(2,4-difluorophenyl)pyrazolo[3,4-d]pyrimidin-4-yl]-18-methyl-13-[3-(1,2,4-triazol-1-yl)propyl]-7-oxa-10,13,18,19-tetrazapentacyclo[15.6.1.1^2,6.1^8,11.0^20,24]hexacosa-1(23),2(26),3,5,17(24),19,21-heptaen-12-one], for which, in experiment [1], the pIC50 is 8.82.

Source of the values: patent US20260070927A1, “INDAZOLE MACROCYCLES FOR THE TREATMENT OF AUTOIMMUNE DISEASE” (Hoffmann-La Roche Inc., priority 2022, published 2026).
